“And” between values parts separate entries of the source, which are not always exact repeats. Equal entries are not always repeated. Where two headings read alike, the source gives them in different places.
Key:
[1] = cited from earlier work
[2] = at 25° C.; cited from earlier work
[3] = THC on swab and in spit after cannabis inhalation (HPLC-MS); conditions: saliva spit into collection vial after inhaling cannabis; one line per volunteer (V14, V27, V40)
[4] = cited from earlier work; remark: listed apart in the source

## CCCCCc1cc(O)c2c(c1)OC(C)(C)[C@@H]1CCC(C)=C[C@@H]21 [THC, Δ^9-tetrahydrocannabinol]
[1]; after being consumed
  time for the concentration in the body to build up to intoxication levels: at least 20 minutes
[1]; after inhalation, estimated
  psychoactive effects of THC felt after initial consumption: 2 to 4 h
[2]
  vapor pressure: 4.6×10^−8 mmHg
[3]
  THC in Spit: 2110.1 ng and 2259.2 ng and 129.6 ng
[4]; after inhalation, blood analyses by GC-MS or LC-MS
  time THC can be detected in the blood: 3.5 to 5.5 h
[4]; chronic users
  time detectable in human samples after use: up to 15 days
[4]; occasional users
  time detectable in human samples after use: 1.3 days

Source: patent publication US11726102B2, “Particle-based drug detection method and device embodiments” (Washington State University, priority 2015, dated 2023)
